Measured values taken from paper PMC10893061, “Novel 2,5-Diketopiperazines with In Vitro Activities against Protozoan Parasites of Tropical Diseases” (Pharmaceuticals, 2024).
Values after ≈ are worked out from the molar mass of the structure shown. Where two headings read alike, the source gives them in different places.

Legend:
[1] = tested on: Leishmania infantum (MHOM/BR/1974/PP75) in THP-1 macrophages; assay: Anti-Leishmania infantum activity assay (infected THP-1 macrophages, red fluorescence); type: cell-based; settings: for IC50: Leishmania infantum, L. infantum in THP-1 macrophages, 72 h; for Status: L. infantum, activity status from IC50 and SI
Description: (§1) Their half-maximum cytotoxic concentrations (CC50) and their selectivity indices (SI), obtained as the ratio of the cytotoxic concentration against the bioactive concentration are shown in Table 2. Theoretically, the higher the SI value, the greater the effectiveness for the target and the lower the toxicity of the compound, characterizing a potentially safe and selective drug.
Cells derived from the human monocytic strain THP-1 were cultured in complete Rowell Park Memorial Institute (RPMI)-1640 medium (supplemented with 10% fetal bovine serum, 100 U/mL penicillin, and 100 μg/mL streptomycin). Monocytes were differentiated into macrophages by the addition of 20 ng/mL phorbol myristate acetate (PMA). […] The IC50 values were determined by non-linear regression using a variable slope model (log[concentration] vs. growth inhibition) with the GraphPad Prism v8.2.0 (Boston, MA, USA) software. Controls with uninfected cells, untreated infected cells, infected cells treated with amphotericin B at 0.25 μM (positive control) or DMSO 1% were used. Quadruplicates were run in the same plate, and the experiments were repeated at least once.

[2] = Cytotoxicity on THP-1 derived macrophages (AlamarBlue); type: cell-based; settings: human, THP-1 cells differentiated into macrophages, THP-1 macrophages
Description: For the cytotoxicity assay, human monocytic THP-1 cells were differentiated into macrophages in 96-well microtiter plates for 72 h, as described above. The medium was then replaced, and the cells were exposed to the compounds at increasing concentrations starting at IC50 value for each Leishmania spp. line. After 72 h of incubation with the compounds, AlamarBlue™ was added and the absorbance at 570 and 600 nm was measured after 4 h. Controls with untreated and DMSO 1%-treated cells were run in parallel. The results were expressed as the percentual difference in the reduction between treated and untreated cells. The compound concentration that inhibits 50% of the THP-1 cell viability (CC50) was determined. The CC50 values were determined by non-linear regression using a variable slope model (log(concentration) vs. growth inhibition) with the GraphPad Prism v8.2.0 (CA, USA) software. Triplicates were run in the same plate and the experiments were repeated at least once.

[3] = Cytotoxicity on L929 cells (AlamarBlue); type: cell-based; settings: mouse, L929 mouse fibroblast cells
Description: The medium was then replaced, and the cells were exposed to compounds at increasing concentrations starting at IC50 value for T. cruzi. After 96 h of incubation with the compounds, AlamarBlue^TM was added and the absorbance at 570 and 600 nm was measured after 4–6 h. Controls with untreated and DMSO 1%-treated cells were run in parallel. The results were expressed as the percent difference in the reduction between treated and untreated cells. The compound concentration that inhibits 50% of the L929 cell viability (CC50) was determined. Quadruplicates were run in the same plate and the experiments were repeated at least once.
(§2) IC50 over T. cruzi and L929 cells were determined by linear interpolation and the selectivity index (SI) was calculated by the ratio of CC50 L929 cells/ IC50 T. cruzi.

[4] = tested on: T. cruzi Tulahuen strain in L929 cells; assay: Anti-Trypanosoma cruzi activity assay (infected L929 cells, beta-galactosidase reporter); type: cell-based; settings: for IC50: Trypanosoma cruzi, T. cruzi Tulahuen in L929 cells, 96 h; for Status: T. cruzi, activity status from IC50 and SI
Description: as §1
The in vitro anti-T. cruzi activity was evaluated on L929 cells (mouse fibroblasts) infected with Tulahuen strain of the parasite expressing the Escherichia coli β-galactosidase as reporter gene according to the method described previously. Briefly, four thousand L929 cells were added to each well of a 96-well microtiter plate. After an overnight incubation, a 10 fold excess of trypomastigotes were added to the cells, incubated for 2 h, then replaced with 200 μL of fresh medium and incubated for additional 48 h to establish the infection. For IC50 determination, the cells were exposed to each synthesized compound at serial decreasing dilutions and the plate was incubated for 96 h. Afterwards, 50 μL of 500 μM chlorophenol red beta-D-galactopyranoside (CPRG) in 0.5% Nonidet P40 was added to each well, and the plate incubated for 16 to 20 h, after which the absorbance at 570 nm was measured. Controls with uninfected cells, untreated infected cells, infected cells treated with benznidazole at 3.8 μM (positive control) or 1% DMSO were used. The results were expressed as the percentage of T. cruzi growth inhibition in compound tested cells as compared to the infected cells and untreated cells. The IC50 values were calculated by linear interpolation. Quadruplicates were run in the same plate, and the experiments were repeated at least once.
as §2

[5] = tested on: P. falciparum chloroquine-resistant and mefloquine-sensitive W2 clone; assay: Anti-Plasmodium falciparum activity assay (SYBR, erythrocytic asexual stages); type: cell-based; settings: for Status: P. falciparum, activity status from IC50 and SI
Description: In vitro assay with P. falciparum culture were performed as described previously. […] The activity was measured using the SYBR assay with the parasite suspension (0.5% parasitemia and 2% hematocrit) with minor modifications. The test compounds, in serial dilutions, were incubated in “U” bottom 96-wells plates. After 48 h at 37 °C, the culture supernatant was removed and replaced by 100 µL of lysis buffer solution [Tris (20 mM; pH 7.5), EDTA (5 mM), saponin (0.008%; wt/vol), and Triton X 100 (0.08%; vol/vol)] followed by addition of 0.2 µL/mL SYBR Safe (Sigma-Aldrich, Carlsbad, CA, USA). The plate content was transferred to a flat bottom plate and incubated in the dark for 30 min. The plate was read in a fluorometer (Synergy H4 Hibrid Reader, Biotek) with excitation at 485 nm and 535 nm of emission. In all tests, the compound activities were expressed by the 50% inhibitory concentration of the parasite growth (IC50) when compared to the drug-free controls and estimated using the curve-fitting software Origin 8.0 (OriginLab Corporation, Northampton, MA, USA).

[6] = Cytotoxicity, neutral red uptake assay on BGM cells; type: cell-based; settings: BGM monkey kidney cells
Description: The BGM cells were incubated with 20 µL of the drugs at different concentrations (≤1000 µg/mL) for 24 h in a 5% CO2 at 37 °C. The neutral red uptake assay was used to evaluate the lysosomal integrity and distinguishes live cells from dead by its ability to incorporate the dye. Briefly, to each well was added 0.2 mL medium containing 50 µg/mL of neutral red solution. The plate was incubated for another 3 h at 37 °C to allow for the uptake of the vital dye into the lysosomes of viable uninjured cells. After removal of medium, 200 µL of a mixture of 0.5% formaldehyde-1% CaCl2 was added to the cells and incubated by 5 min. The supernatant was removed and 100 µL of a solution of 1% acetic acid-50% ethanol was added to each well to extract the dye. After homogenization, the optical density of each well of the plate was measured using a 540 nm wavelength on a spectrophotometer. This absorbance has shown a linear relationship with the number of surviving cells. The cell viability was expressed as the percentage of control absorbance obtained from the untreated cells after subtracting the appropriate background.

[7] = tested on: Plasmodium; design: method as in doi:10.1016/j.tetlet.2016.11.071; settings: read-out: IC50 anti-plasmodial activity; cited from earlier work
[8] = Plasmodium falciparum, W2, 48 h, P. falciparum W2 clone, 48 h, SYBR, read-out: IC50
[9] = P. falciparum W2 clone, 48 h, SYBR

Compound | IC50 [1] | CC50 at 96 h [3] | IC50 [4] | Status [1] | Status [4] | IC50 [5, 8] | further results
C[C@@H]1[C@H](O)[C@@H](C)/C=C/C=C/C=C/C=C/C=C/C=C/C=C/[C@H](O[C@@H]2O[C@H](C)[C@@H](O)[C@H](N)[C@@H]2O)C[C@@H]2O[C@](O)(C[C@@H](O)C[C@@H](O)[C@H](O)CC[C@@H](O)C[C@@H](O)CC(=O)O[C@H]1C)C[C@H](O)[C@H]2C(=O)O [Amphotericin B, reference compound] | 0.228 ± 0.025 µg/mL (≈ 0.247 µM) |  |  |  |  |  | CC50 at 72 h [2]: 367 ± 1 µg/mL (≈ 397 µM)
O=C(Cn1ccnc1[N+](=O)[O-])NCc1ccccc1 [Benznidazole, reference compound] |  | 540 µg/mL (≈ 2070 µM) | 0.5 ± 0.1 µg/mL (≈ 1.92 µM) |  |  |  | 
CCN(CC)CCCC(C)Nc1ccnc2cc(Cl)ccc12 (centres unmarked) [Chloroquine, reference compound] |  |  |  |  |  |  | IC50 ([5]; Plasmodium falciparum, W2, 48 h): 0.174 ± 0.055 µg/mL
CCc1ccc(C2C(=O)N(c3ccc(Cl)cc3)CC(=O)N2c2ccccc2)cc1 (centres unmarked) [Compound 2] | > 100 µg/mL |  |  | inactive |  |  | 
CN(C)c1ccc(C2C(=O)N(c3ccc(Cl)cc3)CC(=O)N2c2ccccc2)cc1 (centres unmarked) [Compound 3] | 49.1 ± 1.6 µg/mL (≈ 117 µM) |  |  | inactive |  |  | 
O=C1C(c2ccc(Cl)cc2)N(c2ccccc2)C(=O)CN1c1ccc(Cl)cc1 (centres unmarked) [Compound 4] | 35.7 ± 0.8 µg/mL (≈ 86.8 µM) |  |  | inactive |  |  | 
O=C1C(c2ccccc2F)N(c2ccccc2)C(=O)CN1c1ccc(Cl)cc1 (centres unmarked) [Compound 5] |  | 29.2 µg/mL (≈ 74 µM) | 9.3 ± 0.1 µg/mL (≈ 23.6 µM) |  | toxic (selectivity index = CC50/IC50, values < 10 are considered toxic) | 15.6 ± 2.6 µg/mL | CC50 at 24 h [6]: ≤ 3.1 µg/mL
CC(=O)Nc1ccc(C2C(=O)N(c3ccc(Cl)cc3)CC(=O)N2c2ccccc2)cc1 (centres unmarked) [Compound 7] | 16 ± 1 µg/mL (≈ 36.9 µM) |  |  | part. ACTIVE (20 > IC50 > 10 µg/mL partially active) |  |  | CC50 at 72 h [2]: 679 ± 1 µg/mL (≈ 1560 µM)
COc1ccc(C2C(=O)N(c3ccc(Cl)cc3)CC(=O)N2c2ccccc2)cc1Br (centres unmarked) [Compound 8] |  | > 400 µg/mL | 7.3 ± 1.5 µg/mL (≈ 15 µM) |  | ACTIVE |  | 
COc1ccc(OC)c(C2C(=O)N(c3ccc(Cl)cc3)CC(=O)N2c2ccccc2)c1 (centres unmarked) [Compound 9] | 50.8 ± 1.1 µg/mL (≈ 116 µM) |  |  | inactive |  |  | 
O=C1C(c2cccc(Cl)c2)N(c2ccccc2)C(=O)CN1c1ccc(Cl)cc1 (centres unmarked) [Compound 10] |  |  |  |  |  | 28.1 ± 0.3 µg/mL | Status [5]: inactive
O=C1C(c2ccc(F)cc2)N(c2ccccc2)C(=O)CN1c1ccc(Cl)cc1 (centres unmarked) [Compound 11] | 38.2 ± 1.8 µg/mL (≈ 96.7 µM) |  |  | inactive |  |  | 
COc1ccc(N2CC(=O)N(c3ccc(OC)cc3)C(c3ccccc3)C2=O)cc1 (centres unmarked) [Compound 13] |  |  | 22.3 ± 1.1 µg/mL (≈ 55.4 µM) |  | inactive |  | 
O=C1C(c2ccc(O)cc2)N(c2ccccc2)C(=O)CN1c1ccc(Cl)cc1 (centres unmarked) [Compound 14] | 8.3 ± 0.2 µg/mL (≈ 21.1 µM) |  |  | ACTIVE |  |  | CC50 at 72 h [2]: 611 ± 1 µg/mL (≈ 1560 µM)
O=C1C(c2ccc(O)c(Br)c2)N(c2ccccc2)C(=O)CN1c1ccc(Cl)cc1 (centres unmarked) [Compound 15] |  | 81.8 µg/mL (≈ 173 µM) | 11.2 ± 6 µg/mL (≈ 23.7 µM) |  | toxic (selectivity index = CC50/IC50, values < 10 are considered toxic) | 14.9 ± 0.7 µg/mL | CC50 at 24 h [6]: 18.5 ± 3.4 µg/mL (≈ 39.2 µM); Status [5]: toxic (selectivity index = CC50/IC50, values < 10 are considered toxic)
O=C1C(c2ccccc2F)N(c2ccc(Cl)cc2)C(=O)CN1c1ccc(Cl)cc1 (centres unmarked) [Compound 17] |  |  |  |  |  | < 10 µg/mL | CC50 at 24 h [6]: 139 ± 18.7 µg/mL (≈ 323 µM); IC50 [5, 9]: 9.5 ± 2.1 µg/mL; Status [5]: ACTIVE
O=C1C(c2ccccc2F)N(c2ccc(Br)cc2)C(=O)CN1c1ccc(Cl)cc1 (centres unmarked) [Compound 19] |  |  |  |  |  | < 10 µg/mL | CC50 at 24 h [6]: 110 ± 11.3 µg/mL (≈ 232 µM); IC50 [5, 9]: 5.4 ± 1.7 µg/mL; Status [5]: ACTIVE; IC50 ([5]; Plasmodium falciparum, W2, P. falciparum, corresponds to 5.4 µg/mL, read-out: IC50 (converted to µM)): 12.6 µM
O=C1C(c2ccccc2F)N(c2ccc(F)cc2)C(=O)CN1c1ccc(Cl)cc1 (centres unmarked) [Compound 20] |  | 32.1 µg/mL (≈ 77.8 µM) | 15.4 ± 3 µg/mL (≈ 37.3 µM) |  | toxic (selectivity index = CC50/IC50, values < 10 are considered toxic) | 17.6 ± 1.3 µg/mL | CC50 at 24 h [6]: 9.4 ± 5.1 µg/mL (≈ 22.8 µM)
O=C1C(c2ccc(Cl)cc2)N(c2ccc(F)cc2)C(=O)CN1c1ccc(Cl)cc1 (centres unmarked) [Compound 21] |  | 16.8 µg/mL (≈ 39.1 µM) | 16.1 ± 2 µg/mL (≈ 37.5 µM) |  | toxic (selectivity index = CC50/IC50, values < 10 are considered toxic) | ≥ 50 µg/mL | Status [5]: inactive
O=C1C(c2c(F)cccc2Cl)N(c2ccccc2)C(=O)CN1c1ccc(Cl)cc1 (centres unmarked) [Compound 22] |  | > 400 µg/mL | 7.2 ± 0.9 µg/mL (≈ 16.8 µM) |  | ACTIVE |  | 
Naseseazine C |  |  |  |  |  |  | IC50 [7]: 3.5 µM
